From PubChem BioAssay (NCI)
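Following 48 hours of exposure in 96-well plates, responses at five concentrations were used to interpolate endpoints linearly. GI50 = concentration required for 50% inhibition of growth. TGI: concentration producing complete growth inhibition.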

Columns and labels:
Assay in all cases: NCI-60 cell line screen, 48 h
[1] = tested on: LOX IMVI melanoma
[2] = tested on: HCT-15 colon
[3] = tested on: MOLT-4 leukemia
[4] = tested on: HOP-92 NSCLC
[5] = tested on: 786-0 renal
[6] = tested on: IGROV1 ovarian
[7] = tested on: UO-31 renal
[8] = tested on: UACC-62 melanoma
[9] = tested on: HL-60(TB) leukemia
[10] = tested on: M14 melanoma

| Compound | TGI [1] [µM] | TGI [2] [µM] | TGI [3] [µM] | TGI [4] [µM] | TGI [5] [µM] | TGI [6] [µM] | TGI [7] [µM] | TGI [8] [µM] | TGI [9] [µM] | TGI [10] [µM] | GI50 [1] [µM] | GI50 [2] [µM] | GI50 [3] [µM] | GI50 [4] [µM] | GI50 [5] [µM] | GI50 [6] [µM] | GI50 [7] [µM] | GI50 [8] [µM] | GI50 [9] [µM] | GI50 [10] [µM] |
| --- | --- | --- | --- | --- | --- | --- | --- | --- | --- | --- | --- | --- | --- | --- | --- | --- | --- | --- | --- | --- |
| COc1ccc(/C=C/c2nc(=S)[nH][nH]2)cc1 | > 100 | > 100 | > 100 | > 100 | > 100 | > 100 | > 100 | > 100 | > 100 | > 100 | – | – | – | – | – | – | – | – | – | – |
| CC(=O)NCCCCCCNC(C)=O | > 10000 | > 10000 | > 10000 | > 6730 | > 10000 | > 10000 | > 10000 | 9870 | 9000 | > 10000 | – | – | – | – | – | – | – | – | – | – |
| O=C(N=Nc1c(O)[nH]c2c(Cl)cc(Cl)cc12)c1ccncc1 | 42.3 | > 100 | > 100 | > 100 | 36.4 | > 100 | > 100 | 33 | > 100 | > 100 | – | – | – | – | – | – | – | – | – | – |
| CCCCCC(=O)OCC(=O)O[C@@H]1C[C@]2(C(C)C)O[C@@]1(C)[C@@H]1CC[C@@H](C)[C@H]1[C@@H]2OC(=O)/C=C/c1ccccc1 | > 72.6 | > 70 | > 100 | > 74.5 | 13.6 | > 55.8 | 0.254 | > 100 | > 80.3 | > 100 | > 49.9 | > 34.3 | > 45.5 | 12.8 | 0.789 | > 33.4 | 0.0408 | > 53.8 | > 53.2 | > 53.4 |
| O=C(NCCN1CCOCC1)Nc1ccc(-c2cc3c(Nc4ccc(Oc5cccc(C(F)(F)F)c5)c(Cl)c4)ncnc3s2)cc1 | 1.58 | 1.92 | 3.75 | 7.43 | 1.6 | 6.85 | 1.75 | 2.27 | 3.37 | 3.24 | 0.841 | 0.95 | 1.22 | 1.66 | 0.67 | 1.64 | 0.801 | 1 | 1.26 | 1.16 |
| CCCC(=O)NC(c1ccc2c(c1)OCO2)c1ccc2cccnc2c1O (stereo not given) | > 100 | 24.6 | > 100 | 36.1 | 14.7 | > 100 | 18.4 | 7.3 | 4.76 | 20.6 | 0.808 | 0.394 | 0.441 | 1.55 | 1.64 | 0.888 | 0.557 | 1.3 | 0.317 | 1.08 |
| CCOC(=O)C1=C(NC(C)(C)C)OCC1=O | > 100 | > 100 | > 100 | > 100 | > 100 | > 100 | > 100 | > 100 | > 100 | > 100 | – | – | – | – | – | – | – | – | – | – |
| O=C(NCCCNC(=O)OCc1ccc2c(Br)cc(Br)c(O)c2n1)OCc1ccc2c(Br)cc(Br)c(O)c2n1 | > 100 | > 100 | > 100 | > 100 | > 100 | > 100 | > 100 | > 100 | > 100 | > 100 | > 100 | > 100 | > 100 | > 100 | > 100 | > 100 | > 100 | > 100 | > 100 | > 100 |
| NS(=O)(=O)c1ccc(NC(=O)CC(=O)Nc2ccc(S(N)(=O)=O)cc2)cc1 | > 100 | > 100 | > 100 | > 100 | > 100 | > 100 | > 100 | > 100 | > 100 | > 100 | – | – | – | – | – | – | – | – | – | – |
| COc1cccc(Cn2cc3c(c2)-c2oncc2CC3)c1 | > 100 | > 38.1 | > 21.7 | 68.3 | > 100 | > 100 | 43.7 | > 88.8 | 0.762 | > 48.2 | 0.912 | 0.401 | 0.508 | 2.17 | 1.98 | 0.801 | 0.671 | 0.662 | 0.247 | 0.374 |
| CCOC(=O)c1cc2cc(NC(=O)c3cc4cc([N+](=O)[O-])ccc4n3C)ccc2n1C | 28 | 51.6 | > 100 | 85 | 31.9 | > 100 | > 100 | 27.1 | > 100 | > 100 | 13.1 | 15.4 | 30.9 | 34.9 | 17.6 | > 100 | > 100 | 12.3 | > 100 | 34.7 |
| O=C(Nc1cccc2cccnc12)c1ccc(N2C(=O)[C@@H]3[C@H](C2=O)[C@@H]2C=C[C@H]3C2)cc1 | > 100 | > 100 | > 66.6 | > 94.3 | > 100 | > 100 | > 100 | > 86.3 | 59 | > 100 | 31.8 | 30.7 | 22.1 | 15.5 | > 74.2 | 32.7 | 3.1 | 22.4 | 21 | 34.9 |
| COC(=O)C1=C(c2cc(OC)c(OC)c(OC)c2)OC(c2cc(OC)c(OC)c(OC)c2)C1COC(C)=O (stereo not given) | 57 | > 100 | 58.7 | > 100 | > 100 | > 100 | > 100 | > 100 | 30.5 | > 100 | – | – | – | – | – | – | – | – | – | – |
| O=C(/C=C/c1c(O)ccc2ccccc12)c1cccc2ccccc12 | > 100 | > 100 | > 100 | > 100 | > 100 | > 100 | > 100 | > 100 | > 63.7 | > 100 | – | – | – | – | – | – | – | – | – | – |
| Cc1[nH]c(=O)nc(CC(O)(c2ccccc2)c2ccccc2)c1-c1ccccc1 | > 100 | > 100 | > 100 | > 100 | > 100 | > 100 | > 100 | > 100 | > 100 | > 100 | – | – | – | – | – | – | – | – | – | – |
